Test results taken from US20220402935A1, “HETEROCYCLIC COMPOUND” (FIMECS, INC., priority 2019, published 2022).

target: T1, IRAK-M (Homo sapiens, UniProt Q9Y616); assay: IRAK-M binding inhibitory activity (KINOMEscan active site-dependent competitive assay); parameters: purchased Eurofins Discover X; conditions: concentration of the test compound 1 μM; first symbol of cell; read-out: IRAK-M binding inhibition activity % Ctrl
T1 sequence (Q9Y616 1-596): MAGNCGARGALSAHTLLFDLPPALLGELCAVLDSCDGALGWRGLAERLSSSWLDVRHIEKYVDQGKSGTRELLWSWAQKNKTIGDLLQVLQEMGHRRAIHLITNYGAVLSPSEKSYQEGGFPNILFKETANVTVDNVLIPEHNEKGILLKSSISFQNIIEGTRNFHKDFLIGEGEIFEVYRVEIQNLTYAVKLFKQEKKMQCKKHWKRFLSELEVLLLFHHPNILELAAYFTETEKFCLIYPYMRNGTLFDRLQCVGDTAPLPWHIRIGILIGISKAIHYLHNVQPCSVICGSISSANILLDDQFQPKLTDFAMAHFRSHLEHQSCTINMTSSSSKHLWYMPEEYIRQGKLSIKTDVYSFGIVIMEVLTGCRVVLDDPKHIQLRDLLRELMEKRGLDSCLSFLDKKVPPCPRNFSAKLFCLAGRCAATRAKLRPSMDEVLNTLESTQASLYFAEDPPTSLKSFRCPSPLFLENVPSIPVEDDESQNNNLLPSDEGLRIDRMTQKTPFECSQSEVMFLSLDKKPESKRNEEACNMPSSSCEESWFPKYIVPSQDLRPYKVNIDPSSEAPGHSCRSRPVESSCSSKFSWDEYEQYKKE
Procedure: IRAK-M binding inhibitory activity was evaluated using active site-dependent competitive assay KINOMEscan® provided by Eurofins Discover X (Goldstein, D. M. et al. High-throughput kinase profiling as a platform for drug discovery. Nat. Rev. Drug Discovery. 7, 391-397 (2008)). IRAK-M binding inhibitory activity of the test compound was evaluated. […] The “% Ctrl” is calculated by the following formula.
(test compound signal−positive control compound signal)/(negative control compound signal−positive control compound signal)×100
Negative control compound=DMSO (100 Ctrl)
Positive control compound=control compound (0%×Ctrl)

Row | Compound | remaining binding at 1 µM [%]
1 | COc1ccc(S(=O)(=O)N2CCC(Oc3ncnc4ccsc34)CC2)cn1 [Ref. example 60, 4-((1-((6-methoxypyridin-3-yl)sulfonyl)piperidin-4-yl)oxy)thieno[3,2-d]pyrimidine] | 25 to 50
2 | Cc1cnn(C)c1S(=O)(=O)N1CCC(Oc2ncnc3ccsc23)CC1 [Ref. example 61, 4-((1-((1,4-dimethyl-1H-pyrazol-5-yl)sulfonyl)piperidin-4-yl)oxy)thieno[3,2-d]pyrimidine] | ≥ 75
3 | CC(C)CS(=O)(=O)N1CCC(Oc2ncnc3ccsc23)CC1 [Ref. example 62, 4-((1-(isobutylsulfonyl)piperidin-4-yl)oxy)thieno[3,2-d]pyrimidine] | 25 to 50
4 | O=S(=O)(CCc1ccccc1)N1CCC(Oc2ncnc3ccsc23)CC1 [Ref. example 63, 4-((1-(phenethylsulfonyl)piperidin-4-yl)oxy)thieno[3,2-d]pyrimidine] | < 25
5 | O=S(=O)(c1cccc(Oc2ccccc2)c1)N1CCC(Oc2ncnc3ccsc23)CC1 [Ref. example 64, 4-((1-((3-phenoxyphenyl)sulfonyl)piperidin-4-yl)oxy)thieno[3,2-d]pyrimidine] | < 25
6 | CCOc1ccc(Nc2ncnc3ccsc23)cc1 [Ref. example 65, N-(4-ethoxyphenyl)thieno[3,2-d]pyrimidin-4-amine] | ≥ 75
7 | COc1ccc(Nc2nc(C)nc3cc(C)sc23)cc1OC [Ref. example 66, N-(3,4-dimethoxyphenyl)-2,6-dimethylthieno[3,2-d]pyrimidin-4-amine] | 50 to 75
8 | C#CCN1CCC(Oc2ccnc3ccsc23)CC1 [Ref. example 67, 7-((1-(prop-2-yn-1-yl)piperidin-4-yl)oxy)thieno[3,2-b]pyridine] | 25 to 50
9 | Cn1nc(O)cc1CN1CCC(Oc2ccnc3ccsc23)CC1 [Ref. example 68, 1-methyl-5-((4-(thieno[3,2-b]pyridin-7-yloxy)piperidin-1-yl)methyl)-1H-pyrazol-3-ol] | 25 to 50
10 | Cc1cc2nccc(OC3CCN(Cc4cc(O)no4)CC3)c2s1 [Ref. example 87, 5-((4-((2-methylthieno[3,2-b]pyridin-7-yl)oxy)piperidin-1-yl)methyl)isoxazol-3-ol] | 25 to 50
11 | Cc1cc2nccc(OC3CCN(C(C)c4cc(O)no4)CC3)c2s1 (centres unmarked) [Ref. example 88, 5-(1-(4-((2-methylthieno[3,2-b]pyridin-7-yl)oxy)piperidin-1-yl)ethyl)isoxazol-3-ol] | 25 to 50

Next, values leading:

Row | remaining binding at 1 µM [%] | Compound
12 | ≥ 75 | Cn1cc(CN2CCC(Oc3ccnc4ccsc34)CC2)cn1 [Ref. example 73, 7-((1-((1-methyl-1H-pyrazol-4-yl)methyl)piperidin-4-yl)oxy)thieno[3,2-b]pyridine]
13 | 50 to 75 | Cc1nn(C)cc1CN1CCC(Oc2ccnc3ccsc23)CC1 [Ref. example 74, 7-((1-((1,3-dimethyl-1H-pyrazol-4-yl)methyl)piperidin-4-yl)oxy)thieno[3,2-b]pyridine]
14 | ≥ 75 | Cc1nn(C)c(C)c1CN1CCC(Oc2ccnc3ccsc23)CC1 [Ref. example 75, 7-((1-((1,3,5-trimethyl-1H-pyrazol-4-yl)methyl)piperidin-4-yl)oxy)thieno[3,2-b]pyridine]
15 | 50 to 75 | Cc1c(CN2CCC(Oc3ccnc4ccsc34)CC2)cnn1C [Ref. example 76, 7-((1-((1,5-dimethyl-1H-pyrazol-4-yl)methyl)piperidin-4-yl)oxy)thieno[3,2-b]pyridine]
16 | 25 to 50 | Cn1nccc1CN1CCC(Oc2ccnc3ccsc23)CC1 [Ref. example 77, 7-((1-((1-methyl-1H-pyrazol-5-yl)methyl)piperidin-4-yl)oxy)thieno[3,2-b]pyridine]
17 | 25 to 50 | Cc1noc(C)c1CN1CCC(Oc2ccnc3ccsc23)CC1 [Ref. example 78, 3,5-dimethyl-4-((4-(thieno[3,2-b]pyridin-7-yloxy)piperidin-1-yl)methyl)isoxazole]
18 | 25 to 50 | c1csc(CN2CCC(Oc3ccnc4ccsc34)CC2)n1 [Ref. example 79, 7-((1-(thiazol-2-ylmethyl)piperidin-4-yl)oxy)thieno[3,2-b]pyridine]
19 | 25 to 50 | Cc1ncc(CN2CCC(Oc3ccnc4ccsc34)CC2)s1 [Ref. example 80, 7-((1-((2-methylthiazol-5-yl)methyl)piperidin-4-yl)oxy)thieno[3,2-b]pyridine]
20 | 50 to 75 | O=C(Cn1cccn1)N1CCC(Oc2ccnc3ccsc23)CC1 [Ref. example 81, 2-(1H-pyrazol-1-yl)-1-(4-(thieno[3,2-b]pyridin-7-yloxy)piperidin-1-yl)ethan-1-one]
21 | 50 to 75 | O=C(Cn1nccn1)N1CCC(Oc2ccnc3ccsc23)CC1 [Ref. example 82, 1-(4-(thieno[3,2-b]pyridin-7-yloxy)piperidin-1-yl)-2-(2H-1,2,3-triazol-2-yl)ethan-1-one]
22 | 25 to 50 | C=CCn1oc(CN2CCC(Oc3ccnc4ccsc34)CC2)cc1=O [Ref. example 84, 2-allyl-5-((4-(thieno[3,2-b]pyridin-7-yloxy)piperidin-1-yl)methyl)isoxazol-3(2H)-one]

same assay, conditions: second symbol of cell; read-out: IRAK-M binding inhibition IC50 value

Row | Compound | IC50 [nM]
23 | C=CCOc1cc(CN2CCC(Oc3ccnc4ccsc34)CC2)n(C)n1 [Ref. example 69, 7-((1-((3-(allyloxy)-1-methyl-1H-pyrazol-5-yl)methyl)piperidin-4-yl)oxy)thieno[3,2-b]pyridine] | 100 to 300
24 | C=CCOc1cc(CN2CCC(Oc3ncnc4ccsc34)CC2)on1 [Ref. example 70, 3-(allyloxy)-5-((4-(thieno[3,2-d]pyrimidin-4-yloxy)piperidin-1-yl)methyl)isoxazole] | 100 to 300
25 | C#CCOc1cc(CN2CCC(Oc3ccnc4ccsc34)CC2)on1 [Ref. example 71, 3-(prop-2-yn-1-yloxy)-5-((4-(thieno[3,2-b]pyridin-7-yloxy)piperidin-1-yl)methyl)isoxazole] | 30 to 100
26 | C=CCOc1cc(CN2CCC(Oc3ccnc4cc(C)sc34)CC2)on1 [Ref. example 72, 3-(allyloxy)-5-((4-((2-methylthieno[3,2-b]pyridin-7-yl)oxy)piperidin-1-yl)methyl)isoxazole] | 30 to 100

Results, then the molecule that gave them:

Row | IC50 [nM] | Compound
27 | < 30 | C=CCOc1cc(C(C)N2CCC(Oc3ccnc4ccsc34)CC2)on1 (centres unmarked) [Ref. example 83, 3-(allyloxy)-5-(1-(4-(thieno[3,2-b]pyridin-7-yloxy)piperidin-1-yl)ethyl)isoxazole]
28 | 100 to 300 | COCCOc1cc(CN2CCC(Oc3ccnc4ccsc34)CC2)on1 [Ref. example 85, 3-(2-methoxyethoxy)-5-((4-(thieno[3,2-b]pyridin-7-yloxy)piperidin-1-yl)methyl)isoxazole]
29 | 100 to 300 | C=CCOc1cc(CN2CCC(Oc3ccnc4cc(C#N)sc34)CC2)on1 [Ref. example 86, 7-((1-((3-(allyloxy)isoxazol-5-yl)methyl)piperidin-4-yl)oxy)thieno[3,2-b]pyridine-2-carbonitrile]
